Measurements: patent US4868195A, “Novel enolamides, pharmaceutical compositions and methods of use thereof for activity as modulators of the arachidonic acid cascade” (Warner-Lambert Company, priority 1988, dated 1989)
“And” between values parts separate entries of the source, which are not always exact repeats. Equal values may be shown once.

Molecular target: T1, 5-lipoxygenase (Homo sapiens, UniProt P09917)
T1 construct: endogenous in cells; host or cells: intact leukocytes isolated from human blood
T1 sequence (P09917 1-674): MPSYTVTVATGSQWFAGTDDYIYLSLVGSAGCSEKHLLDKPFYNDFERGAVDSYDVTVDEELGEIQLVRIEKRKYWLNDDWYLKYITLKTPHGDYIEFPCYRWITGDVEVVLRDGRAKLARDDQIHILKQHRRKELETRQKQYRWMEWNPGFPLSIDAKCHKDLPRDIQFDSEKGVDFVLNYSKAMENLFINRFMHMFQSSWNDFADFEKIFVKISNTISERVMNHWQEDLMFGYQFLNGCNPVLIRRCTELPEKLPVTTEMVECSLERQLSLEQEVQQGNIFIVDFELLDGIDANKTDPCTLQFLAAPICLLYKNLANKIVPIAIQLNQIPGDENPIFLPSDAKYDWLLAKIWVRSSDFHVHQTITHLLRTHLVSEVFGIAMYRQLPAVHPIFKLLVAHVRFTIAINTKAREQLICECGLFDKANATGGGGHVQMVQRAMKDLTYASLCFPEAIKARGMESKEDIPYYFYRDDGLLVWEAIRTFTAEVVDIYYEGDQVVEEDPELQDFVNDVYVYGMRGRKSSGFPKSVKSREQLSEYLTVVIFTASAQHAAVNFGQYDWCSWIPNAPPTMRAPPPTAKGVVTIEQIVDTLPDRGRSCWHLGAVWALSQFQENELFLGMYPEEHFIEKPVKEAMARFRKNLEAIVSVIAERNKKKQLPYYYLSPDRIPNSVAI
Experiment: 5-Lipoxygenase Assay Using Isolated Human Leukocytes (5LOA2)
Type: cell-based
Settings: 5-HETE formation, HPLC, read-out: Concentration (M) for 50.0 % Inhibition, IC (5LOA2)
Description: 5-Lipoxygenase Assay Using Isolated Human Leukocytes (5LOA2)
The formation of 5-HETE in human leukocytes is considered a measure of 5-lipoxygenase activity. The protocol is described in the following.
Fresh heparinized or EDTA treated human blood is mixed with 6% dextran-3% dextrose in isotonic saline in the ratio 0.25 ml dextran solution per 1.0 ml blood. After mixing the blood is allowed to sit at room temperature for about 90 minutes while the RBC's settle. During this period, the plasma is removed with a plastic pepette to nalgens tubes.
The plasma is centrifuged at 800 rpm ([…]) on the Beckman Td-b refrigerated centrifuge to remove the platelets (which remain in the supernatant). The pellet, consisting of leukocytes and erythrocytes, is treated with 10 ml 0.87% ammonium chloride at room temperature for four minutes, lysing the red cells. At the end of four minutes the cells are diluted with a 2x volume of phosphate buffered saline, pH 7.4, and centrifuged for ten minutes. The cells are washed three times with the phosphate buffered saline. […]
A portion of the ethanol solution is injected into the HPLC system for 5-HETE quantitation.
The HPLC system consists of Hewlett-Packard 1040A UV spectrophotometry system with an HP85 computer. […] Peaks are measured with a Hewlett Packard 3390A integrator. […] The flow is monitored at 235 nm for 5-HETE quantitation. […]

Row | Structure (SMILES) | IC50
1 | O=C(Nc1ccccc1CCc1ccc(Cl)c(Cl)c1)C1=C(O)c2ccccc2S(=O)(=O)C1 [Example 8, N-[2-[2-(3,4-Dichlorophenyl)ethyl]phenyl]-4-hydroxy-2H-1-benzothiopyran-3-carboxamide, 1,1-dioxide] | 5e-06 M and 4.6e-06 M
2 | O=C(Nc1ccccc1Cc1ccc(Cl)c(Cl)c1)C1=C(O)c2ccccc2S(=O)(=O)C1 [Example 81, 2H-1-Benzothiopyran-3-carboxamide, N-[2-[(3,4-dichlorophenyl)methyl]phenyl]-4-hydroxy, 1,1-dioxide] | 8.4e-06 M
